Data from patent publication US20240366648A1, “NAD-AUGMENTATION THERAPY FOR PARKINSON'S DISEASE” (Vestlandets Innovasjonsselskap AS (VIS), priority 2021, published 2024).

How the values were obtained:
[1] = tested on: GDF15, FGF21, Nf-L, inflammatory cytokines; experiment: Nf-L, GDF15, FGF21 and cytokine detection in serum and CSF; type: in vivo, human
Method: Neurofilament light chain (Nf-L) measurement in CSF and serum samples was carried out in duplicates using the Simoa NF-light Advantage (SR-X) Kit (Quanterix) according to the manufacturer's recommendations and analyzed on an Simoa SR-X instrument (Quanterix). GDF15 and FGF21 detection was carried out using ELISA kits GDF-15/MIC-1 Human ELISA (RD191135200R) and Fibroblast Growth Factor 21 Human ELISA (RD191108200R) from BioVendor according to manufacturer's recommendations. For CSF analyses of GDF15, CSF was diluted 1:2 in dilution buffer. All samples were analyzed twice in duplicates. Inflammatory Cytokine screening was carried out using the Human Cytokine Magnetic 35-plex panel (Invitrogen), detecting FGF-Basic, IL-1 beta, G-CSF, IL-10, IL-13, IL-6, IL-12, RANTES, Eotaxin, IL-17A, MIP-1 alpha, GM-CSF, MIP-1 beta, MCP-1, IL-15, EGF, IL-5, HGF, VEGF, IL-1 alpha, IFN-gamma, IL-17F, IFN-alpha, IL-9, IL-1RA, TNF-alpha, IL-3, IL-2, IL-7, IP-10, IL-2R, IL-22, MIG, IL-4, IL-8. CSF and serum samples were analyzed according to the manufacturer's recommendations and measured on a BioPlex 200 instrument (BioRad).
The between visit change ([visit 2]−[visit 1]) in MDS-UPDRS (total of subsections I-III; and individual subsections I, II and III) was compared between the NR and placebo groups using independent Student's t-test. In addition, the between visit change in MDS-UPDRS (total and subsections) within the NR, MRS-responder, and placebo groups was assessed by paired Student's t-test. For the 31P-MRS analyses, the change in measured metabolites between visit 1 and visit 2 was assessed in the placebo- and NR group using paired Student's t-test. In addition, the between-visit change in NAD/ATP-α was compared between the NR and placebo group by independent Student's t-test. For PET analyses, changes in network scores with treatment were evaluated for each group separately using paired Student's t-tests or permutation tests. Relationships between network values, NAD levels and MDS-UPDRS motor ratings or between treatment-related changes in these variables were evaluated using Pearson's product-moment correlations; Spearman rank-order correlation coefficients were computed for non-normal distributions of the variables. These statistical tests were performed using SPSS (SPSS Inc., Chicago, IL); results were considered significant for p≤0.05 (two-tailed). Metabolite quantification data, Nf-L; GDF15, FGF21 and cytokine data were analyzed by paired sample Wilcoxon test using GraphPad Prism v 6.07.

[2] = tested on: individuals with Parkinson's disease; experiment: High-dose NR safety study in PD (Example 5); type: in vivo, human; conditions: oral NR 3000 mg daily, 4 weeks
Method: • To determine the safety of oral NR 3000 mg daily for a period of 4 weeks in individuals with Parkinson's disease (PD). Safety is defined as the absence of NR-associated moderate or severe adverse events (AE).
This is a single center, phase I double blinded, randomized, placebo controlled drug-safety study.
20 patients are included in this study: 10 receiving 3000 mg oral NR and 10 receiving placebo.
Each capsule of NR contains 250 mg of NR. Patients administer orally 6 capsules (1500 mg) two times daily (3000 mg daily total) for the duration of the study (4 weeks). Placebo capsules are administered similarly (6 capsules two times daily). The study medication is to be taken every day during the treatment period, including prior to study visits.
An adverse event (AE) can therefore be any unfavourable and unintended sign (including an abnormal laboratory finding), symptom, or disease temporally associated with the use of a investigational product, whether or not related to the investigational product. The term AE is used to include both serious and non-serious AEs. If an abnormal laboratory value/vital sign is associated with clinical signs and symptoms, the sign/symptom is reported as an AE and the associated laboratory result/vital sign is considered as additional information that must be collected. Only intensity 2 and 3 is registered as AE. […]

healthy individuals = conditions: cited from earlier work
patients with ALS = conditions: de la Rubia et al. 2019; cited from earlier work
mice = conditions: Xie et al. 2019; cited from earlier work

NC(=O)c1ccc[n+]([C@@H]2O[C@H](CO)[C@@H](O)[C@H]2O)c1 [NR, nicotinamide riboside]
FGF21 in serum ([1]; NR group, visit 2 vs visit 1): unchanged
GDF15 levels in CSF (decrease) ([1]; NR group, visit 2 vs visit 1): not in CSF
GDF15 levels in serum ([1]; NR group, visit 2 vs visit 1): mild but significant decrease
neurofilament light chain (Nf-L) levels in serum and CSF ([1]; NR group, visit 2 vs visit 1): unchanged
levels of several inflammatory cytokines in serum and CSF ([1]; NR group, within-group, visit 2 vs visit 1): reduced
fold change of serum cytokines that also decreased in placebo, compared between groups ([1]; NR vs placebo): no significant difference
adverse events reported throughout the study [2]: no serious adverse events or any adverse events of medical significance
oral bioavailability in humans (healthy individuals; Trammell et al. 2016): good oral bioavailability
total levels of NAD and related metabolites in blood and muscle (healthy individuals; healthy individuals, oral 1000 mg NR daily): substantially elevates
clinical effect in patients with ALS (patients with ALS): substantial clinical improvement
neuroprotection in mice (mice): neuroprotective effects
